The target of this assay is Endothelial lipase (EL) (Homo sapiens (Human), UniProt Q9Y5X9). The assay can be described thus: Endothelial lipase (EL) activity assay with fluorescent substrate A10070 in DMPG vesicles. The class given is biochemical. As to the method: Endothelial lipase activity was measured using a fluorescent substrate, A10070, (Invitrogen, CA) doped into an artificial vesicle containing DMPG (Avanti Polar Lipids) as the excipient. Vesicles were prepared by combining 285 μL of 1 mM DMPG in a 1:1 mixture of MeOH and CHCl3 with 15 μL of 1 mM A10070 in a 1:1 mixture of MeOH and CHCl3. The mixture was dried under nitrogen and resuspended in 150 μL of 50 mM HEPES pH 8.0 buffer containing 100 mM NaCl and 0.2 mM EDTA. The sample was allowed to sit at rt for 15 min and then was sonicated 3×4 mins on ice with a Branson Sonicator using duty cycle 1. This preparation provides vesicles with a mole fraction of 0.05 for the FRET substrate.
Sequence of Endothelial lipase (EL) (Q9Y5X9 21-500): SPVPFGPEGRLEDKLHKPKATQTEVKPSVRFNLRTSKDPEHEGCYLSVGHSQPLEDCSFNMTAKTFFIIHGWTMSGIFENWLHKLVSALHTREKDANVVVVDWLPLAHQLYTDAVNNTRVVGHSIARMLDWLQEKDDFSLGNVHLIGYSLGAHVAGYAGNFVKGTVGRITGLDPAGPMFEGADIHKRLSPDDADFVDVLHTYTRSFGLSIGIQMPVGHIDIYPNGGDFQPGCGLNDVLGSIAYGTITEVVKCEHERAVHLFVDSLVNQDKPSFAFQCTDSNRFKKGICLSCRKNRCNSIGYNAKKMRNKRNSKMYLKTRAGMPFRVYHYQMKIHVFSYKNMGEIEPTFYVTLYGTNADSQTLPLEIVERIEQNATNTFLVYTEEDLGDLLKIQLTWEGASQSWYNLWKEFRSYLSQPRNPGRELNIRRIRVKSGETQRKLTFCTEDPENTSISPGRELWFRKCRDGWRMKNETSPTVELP
The enzymatic assay was measured using white, opaque 96-well half area plates. Each well contained 60 μL of assay buffer (50 mM HEPES pH 8.0, 50 mM NaCl and 1 mM CaCl2) and 2 ul of a DMSO solution containing compound of interest. Conditioned media obtained from HT-1080 cells, which were transformed by RAGE technology (Athersys) to overexpress endogenous EL, was added and the reaction was allowed to incubate for 20 min at 37° C. with gentle agitation. The reaction was started by the addition of 20 μL of a 1:4 dilution of vesicles. The final total reaction volume was 100 μL. The reaction rates were measured on a Gemini plate reader with an excitation wavelength of 488 nm and an emission of 530 nm. Readings were taken every 20 seconds for 10 min with agitation between each reading. The slope of the linear portion of the readout was used to calculate the rate of the reaction.
One may read the IC50 as the concentration that gives 50% inhibition. Low values mean greater potency, high ones weaker potency. Turning to `O=C(c1nnc(NC2CCCNC2=O)o1)c1nc2ccc(-c3ccccc3)cc2s1` (single isomer, unassigned) [Example 77, 3-((5-(6-phenylbenzo[d]thiazole-2-carbonyl)-1,3,4-oxadiazol-2-yl)amino)piperidin-2-one], half-maximal inhibition (IC50) was put at 140 nM.
As for `O=C(c1nnc(NC2CCCNC2=O)o1)c1nc2ccc(-c3ccccc3)cc2s1` (single isomer, unassigned) [Example 78, 3-((5-(6-phenylbenzo[d]thiazole-2-carbonyl)-1,3,4-oxadiazol-2-yl)amino)piperidin-2-one], half-maximal inhibition (IC50) required 27 nM.
To `O=C(c1nnc(CC2CCNC2=O)o1)c1nc2ccc(-c3ccccc3)cc2s1` (stereo not shown) [Example 1] belongs below 10 nM; to `O=C(c1nnc(CC2CCNC2=O)o1)c1nc2ccc(-c3ccccc3)cc2s1` (stereo not shown) [Example 3, 3-((5-(6-phenylbenzo[d]thiazole-2-carbonyl)-1,3,4-oxadiazol-2-yl)methyl)pyrrolidin-2-one], below 10 nM; to `COC(=O)N[C@H]1CC[C@H](c2nnc(C(=O)c3nc4ccc(-c5ccccc5)cc4s3)o2)CC1` [Example 6, methyl ((1R,4R)-4-(5-(6-phenylbenzo[d]thiazole-2-carbonyl)-1,3,4-oxadiazol-2-yl)cyclohexyl)carbamate], 99 nM.
Compound `O=C(c1nnc(C2CCN(c3ncccn3)CC2)o1)c1nc2ccc(-c3ccccc3)cc2s1` [Example 7, (6-phenylbenzo[d]thiazol-2-yl)(5-(1-(pyrimidin-2-yl)piperidin-4-yl)-1,3,4-oxadiazol-2-yl)methanone] returned a concentration for half-maximal inhibition (IC50) below 10 nM.
Under `O=C(c1nnc(CCc2ncc[nH]2)o1)c1nc2ccc(-c3ccccc3)cc2s1` [Example 8, (5-(2-(1H-imidazol-2-yl)ethyl)-1,3,4-oxadiazol-2-yl)(6-phenylbenzo[d]thiazol-2-yl)methanone] stands 11 nM; under `O=C(c1nnc(CCc2ncc(-c3ccccc3)o2)o1)c1nc2ccc(-c3ccccc3)cc2s1` [Example 9, (6-phenylbenzo[d]thiazol-2-yl)(5-(2-(5-phenyloxazol-2-yl)ethyl)-1,3,4-oxadiazol-2-yl)methanone], below 10 nM; under `O=C(c1nnc(C2CCS(=O)(=O)N2)o1)c1nc2ccc(-c3ccccc3)cc2s1` (stereo not shown) [Example 11, (5-(1,1-dioxidoisothiazolidin-3-yl)-1,3,4-oxadiazol-2-yl)(6-phenylbenzo[d]thiazol-2-yl)methanone], below 10 nM.
`NS(=O)(=O)Cc1nnc(C(=O)c2nc3c(F)cc(-c4ccccc4)cc3s2)o1` [Example 12, (5-(4-fluoro-6-phenylbenzo[d]thiazole-2-carbonyl)-1,3,4-oxadiazol-2-yl)methanesulfonamide] displayed a half-inhibitory concentration (IC50) below 10 nM.
`O=C(c1nnc(C2CCN(c3ccc(C(F)(F)F)cc3)CC2)o1)c1nc2ccc(-c3ccccc3)cc2s1` [Example 13, (6-phenylbenzo[d]thiazol-2-yl)(5-(1-(4-(trifluoromethyl)phenyl)piperidin-4-yl)-1,3,4-oxadiazol-2-yl)methanone] returned a half-maximal inhibitory concentration (IC50) below 10 nM.
To `O=C(c1nnc(CCc2nc3ccccc3[nH]2)o1)c1nc2c(F)cc(-c3ccccc3)cc2s1` [Example 14, (5-(2-(1H-benzo[d]imidazol-2-yl)ethyl)-1,3,4-oxadiazol-2-yl)(4-fluoro-6-phenylbenzo[d]thiazol-2-yl)methanone] belongs below 10 nM; to `CC(C)(C)OC(=O)N1CCC(CCc2nnc(C(=O)c3nc4ccc(-c5ccc(F)cc5)cc4s3)o2)CC1` [Example 15, tert-butyl 4-(2-(5-(6-(4-fluorophenyl)benzo[d]thiazole-2-carbonyl)-1,3,4-oxadiazol-2-yl)ethyl)piperidine-1-carboxylate], below 10 nM; to `CC(C)(C)OC(=O)N[C@H]1CC[C@H](c2nnc(C(=O)c3nc4ccc(-c5ccccc5)cc4s3)o2)CC1` [Example 16, tert-butyl ((1r,4r)-4-(5-(6-phenylbenzo[d]thiazole-2-carbonyl)-1,3,4-oxadiazol-2-yl)cyclohexyl)carbamate], 31 nM.
Turning to `O=C(c1nnc(C2CCN(Cc3ccc(F)cc3)CC2)o1)c1nc2ccc(-c3ccccc3)cc2s1` [Example 17, (5-(1-(4-fluorobenzyl)piperidin-4-yl)-1,3,4-oxadiazol-2-yl)(6-phenylbenzo[d]thiazol-2-yl)methanone], the IC50 is below 10 nM.
As to `CC(C)(C)OC(=O)N1CCC(c2nnc(C(=O)c3nc4ccc(-c5ccc(F)cc5)cc4s3)o2)CC1` [Example 18, tert-butyl 4-(5-(6-(4-fluorophenyl)benzo[d]thiazole-2-carbonyl)-1,3,4-oxadiazol-2-yl)piperidine-1-carboxylate], the 50% inhibitory concentration (IC50) was below 10 nM.
The compound `O=C(c1nnc(CCC2CCN(CC3CC3)CC2)o1)c1nc2ccc(-c3ccccc3)cc2s1` [Example 19, (5-(2-(1-(cyclopropylmethyl)piperidin-4-yl)ethyl)-1,3,4-oxadiazol-2-yl)(6-phenylbenzo[d]thiazol-2-yl)methanone] returned an IC50 of 13 nM.
`CC(C)(C)OC(=O)N1CCC(c2nnc(C(=O)c3nc4ccc(-c5ccccc5)cc4s3)o2)CC1` [Example 20, tert-butyl 4-(5-(6-phenylbenzo[d]thiazole-2-carbonyl)-1,3,4-oxadiazol-2-yl)piperidine-1-carboxylate] came in with an IC50 below 10 nM.
Under `O=C(c1nnc(C2CCN(Cc3ccc(OC(F)(F)F)cc3)CC2)o1)c1nc2ccc(-c3ccccc3)cc2s1` [Example 23, (6-Phenylbenzo[d]thiazol-2-yl)(5-(1-(4-(trifluoromethoxy)benzyl)piperidin-4-yl)-1,3,4-oxadiazol-2-yl)methanone] stands below 10 nM; under `CN(Cc1nnc(C(=O)c2nc3ccc(-c4ccccc4)cc3s2)o1)S(N)(=O)=O` [Example 27, N-methyl-N-((5-((6-phenyl-1,3-benzothiazol-2-yl)carbonyl)-1,3,4-oxadiazol-2-yl)methyl)sulfamide], 23 nM; under `NS(=O)(=O)NCCc1nnc(C(=O)c2nc3ccc(-c4ccccc4)cc3s2)o1` [Example 28, N-(2-(5-((6-phenyl-1,3-benzothiazol-2-yl)carbonyl)-1,3,4-oxadiazol-2-yl)ethyl)sulfamide], 36 nM.
`CC1(Cc2nnc(C(=O)c3nc4ccc(-c5ccccc5)cc4s3)o2)NC(=O)NC1=O` (stereo not shown) [Example 32, 5-methyl-5-((5-(6-phenylbenzo[d]thiazole-2-carbonyl)-1,3,4-oxadiazol-2-yl)methyl)-imidazol-idine-2,4-dione] yielded an IC50 below 10 nM.
To `CC1(Cc2nnc(C(=O)c3nc4ccc(-c5ccccc5)cc4s3)o2)NC(=O)NC1=O` (stereo not shown) [Example 33, 5-methyl-5-((5-(6-phenylbenzo[d]thiazole-2-carbonyl)-1,3,4-oxadiazol-2-yl)methyl)-imidazol-idine-2,4-dione] belongs 21 nM.
Compound `CC1(Cc2nnc(C(=O)c3nc4ccc(-c5ccccc5)cc4s3)o2)NC(=O)NC1=O` (stereo not shown) [Example 34, 5-methyl-5-((5-(6-phenylbenzo[d]thiazole-2-carbonyl)-1,3,4-oxadiazol-2-yl)methyl)-imidazol-idine-2,4-dione] displayed an IC50 below 10 nM.
The compound `CC1(Cc2nnc(C(=O)c3nc4ccc(-c5ccc(F)cc5)cc4s3)o2)NC(=O)NC1=O` (stereo not shown) [Example 35, 5-((5-(6-(4-fluoro-phenyl)benzo[d]thiazole-2-carbonyl)-1,3,4-oxadiazol-2-yl)methyl)-5-methyl-imidazolidine-2,4-dione] registered a half-maximal inhibitory concentration (IC50) below 10 nM.

Source of the values: patent US9169240B2, “Ketone linked benzothiazole inhibitors of endothelial lipase” (BRISTOL-MYERS SQUIBB COMPANY, priority 2012, dated 2015).
